The text below walks through data of patent publication US10793568B2, “Hormone receptor modulators for treating metabolic conditions and disorders” (ARDELYX, INC., priority 2016, dated 2020).

The structures appear in SMILES notation. A value given as a limit tells only on which side of the number the result lay.

For test [1], the target named is ligand binding domain of human FXR (Homo sapiens (Human), UniProt Q96RI1). Nature of the test: FXR ligand binding assay (LanthaScreen TR-FRET, SRC2-2 peptide recruitment). The following applies: for pEC50: -log EC50, concentration required to produce 50% activation; for Emax: extent of activation relative to GW4064, read-out: % Efficacy.
Chain of ligand binding domain of human FXR (Q96RI1 262-486): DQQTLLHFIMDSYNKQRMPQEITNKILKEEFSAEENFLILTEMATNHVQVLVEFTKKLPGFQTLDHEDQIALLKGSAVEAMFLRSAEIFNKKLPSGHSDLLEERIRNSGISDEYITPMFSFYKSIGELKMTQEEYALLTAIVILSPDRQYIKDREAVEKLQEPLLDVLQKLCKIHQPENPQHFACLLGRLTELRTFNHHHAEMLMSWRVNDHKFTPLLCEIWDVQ
Test [2] addresses human Farnesoid X receptor ligand-binding domain/Gal4 DNA binding domain chimera (Homo sapiens (Human), UniProt Q96RI1). Nature of the test: Cell-based assay of FXR activation (FXR-UAS-bla HEK 293T beta-lactamase reporter). The following applies: cellular FXR beta-lactamase reporter assay; for Emax: HEK-293T, extent of activation relative to GW4064, read-out: % Efficacy; for EC50: FXR-UAS-bla HEK 293T cells, 16 h, pEC50 = -log EC50. The method, boiled down: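 Readout is cleavage of the CCF4 FRET substrate (409 nm excitation, blue 447 nm signal) by beta-lactamase, expressed under UAS control after a Gal4–human FXR LBD chimera is activated in HEK 293T cells. Compounds were added as 3-fold dilutions for 16 h at 37 °C in 2% charcoal-stripped FBS medium. Curves were fit to a 3-parameter logistic equation to give pEC50, with % activation relative to GW4064.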

Chain of human Farnesoid X receptor ligand-binding domain/Gal4 DNA binding domain chimera (Q96RI1 262-486, change not shown): as the sequence (Q96RI1 262-486) above
Chain of human Farnesoid X receptor ligand-binding domain/Gal4 DNA binding domain chimera (P04386 1-147 partner): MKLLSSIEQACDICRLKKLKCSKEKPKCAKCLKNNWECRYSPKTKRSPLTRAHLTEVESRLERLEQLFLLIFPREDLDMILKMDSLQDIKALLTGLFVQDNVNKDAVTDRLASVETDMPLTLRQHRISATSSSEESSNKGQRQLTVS

As for `CS(=O)(=O)NC(=O)CCc1ccc(N2C[C@@H]3C[C@H]2C[C@H]3OCc2c(-c3c(F)cccc3Cl)noc2C2CC2)c(F)c1` [Compound I-239, 3-(4-((1S,4S,5R)-5-((3-(2-chloro-6-fluorophenyl)-5-cyclopropylisoxazol-4-yl)methoxy)-2-azabicyclo[2.2.1]heptan-2-yl)-3-fluorophenyl)-N-(methylsulfonyl)propanamide], in test [1], the pEC50 is 8.2 and the Emax worked out at 176%. Besides, in test [2], the Emax came to 94% and the EC50 is 7.94 nM.
In the same order, the values of `CCCS(=O)(=O)NC(=O)c1cnc(N2C[C@@H]3C[C@H]2C[C@H]3OCc2c(-c3c(Cl)cccc3Cl)noc2C2CC2)c(F)c1` [Compound I-206, 6-((1S,4S,5R)-5-((5-cyclopropyl-3-(2,6-dichlorophenyl)isoxazol-4-yl)methoxy)-2-azabicyclo[2.2.1]heptan-2-yl)-5-fluoro-N-(propylsulfonyl)nicotinamide] are 8.4, 159%, 104% and 1.58 nM.
In the same order, the values of `O=C(O)c1cc(OC(F)(F)F)c2nc(N3C[C@@H]4C[C@H]3C[C@H]4OCc3c(C4CCOCC4)noc3C3CC3)sc2c1` [Compound I-23, 2-[(1S,4S,5R)-5-{[5-cyclopropyl-3-(oxan-4-yl)-1,2-oxazol-4-yl]methoxy}-2-azabicyclo[2.2.1]heptan-2-yl]-4-(trifluoromethoxy)-1,3-benzothiazole-6-carboxylic Acid] are 5.5, 85%, 100% and 631 nM.
The like results for `O=C(O)CCc1ccc(N2C(=O)[C@@H]3C[C@H]2C[C@H]3OCc2c(-c3c(Cl)cccc3Cl)noc2C2CC2)cc1` [Compound I-303, 3-{4-[(1S,4R,5R)-5-{[5-cyclopropyl-3-(2,6-dichlorophenyl)-1,2-oxazol-4-yl]methoxy}-3-oxo-2-azabicyclo[2.2.1]heptan-2-yl]phenyl}propanoic Acid] were, in that order, 7.4, 132%, 98% and 6.31 nM.
With `O=C(NS(=O)(=O)[C@@H]1CCC[C@H]1O)c1ccc(N2C(=O)[C@@H]3C[C@H]2C[C@H]3OCc2c(-c3c(Cl)cccc3Cl)noc2C2CC2)cc1F` [Compound I-346, 4-[(1S,4R,5R)-5-{[5-cyclopropyl-3-(2,6-dichlorophenyl)-1,2-oxazol-4-yl]methoxy}-3-oxo-2-azabicyclo[2.2.1]heptan-2-yl]-2-fluoro-N-{[(1R,2R)-2-hydroxycyclopentyl]sulfonyl}benzamide], in test [1], the pEC50 turned out to be 8.2 and the Emax amounted to 188%. For the same molecule, in test [2], the Emax is 133% and the EC50 was 0.794 nM.
The like results for `O=C(O)c1ccc([N+]2([O-])C[C@@H]3C[C@H]2C[C@H]3OCc2c(-c3c(Cl)cccc3Cl)noc2C2CC2)cc1` (stereo partly drawn) [Compound I-127, (1S,4S,5R)-2-(4-carboxyphenyl)-5-{[5-cyclopropyl-3-(2,6-dichlorophenyl)-1,2-oxazol-4-yl]methoxy}-2-azabicyclo[2.2.1]heptan-2-ium-2-olate] were, in that order, 9.3, 136%, 104% and 2.51 nM.
With `O=C(NS(=O)(=O)CCCCCCCCCCNC(=O)[C@H](O)[C@@H](O)[C@H](O)[C@H](O)CO)c1ccc(N2C[C@@H]3C[C@H]2C[C@H]3OCc2c(-c3c(Cl)cccc3Cl)noc2C2CC2)c(F)c1` [Compound I-223, (2R,3S,4R,5R)—N-{10-[({4-[(1S,4S,5R)-5-{[5-cyclopropyl-3-(2,6-dichlorophenyl)-1,2-oxazol-4-yl]methoxy}-2-azabicyclo[2.2.1]heptan-2-yl]-3-fluorophenyl}formamido)sulfonyl]decyl}-2,3,4,5,6-pentahydroxyhexanamide], in test [1], the pEC50 amounted to 8.6 and the Emax came out at 144%. Moreover, in test [2], the EC50 is < 31.6 nM.
`O=C(O[C@@H]1C[C@@H]2C[C@H]1CN2c1ccc(-c2nn[nH]n2)cc1F)c1c(-c2c(Cl)cccc2Cl)noc1C1CC1` [Compound I-51, (1S,4S,5R)-2-[2-fluoro-4-(2H-1,2,3,4-tetrazol-5-yl)phenyl]-2-azabicyclo[2.2.1]heptan-5-yl 5-cyclopropyl-3-(2,6-dichlorophenyl)-1,2-oxazole-4-carboxylate]: in test [1], the pEC50 is 6.7 and the Emax came to 269%. Also, in test [2], the Emax was 104% and the response was half-maximal at 20 nM (EC50).
The like results for `O=C(NS(=O)(=O)C1CCOC1)c1ccc(N2C(=O)[C@@H]3C[C@H]2C[C@H]3OCc2c(-c3c(Cl)cccc3Cl)noc2C2CC2)cc1` (stereo partly drawn) [Compound I-340, 4-((1S,4R,5R)-5-((5-cyclopropyl-3-(2,6-dichlorophenyl)isoxazol-4-yl)methoxy)-3-oxo-2-azabicyclo[2.2.1]heptan-2-yl)-N-((tetrahydrofuran-3-yl)sulfonyl)benzamide] were, in that order, 8.8, 182%, 110% and 7.94 nM.
The like results for `O=C(NS(=O)(=O)C1CC1)c1ccc(N2C[C@H]3C[C@@H]2C[C@@H]3OCc2c(-c3c(Cl)cccc3Cl)noc2C2CC2)c(F)c1` [Compound I-231, 4-((1R,4R,5S)-5-((5-cyclopropyl-3-(2,6-dichlorophenyl)isoxazol-4-yl)methoxy)-2-azabicyclo[2.2.1]heptan-2-yl)-N-(cyclopropylsulfonyl)-3-fluorobenzamide] were, in that order, 8.4, 110%, 106% and 15.8 nM.
The like results for `O=C(O)c1cc(F)c(N2C[C@@H]3C[C@H]2C[C@H]3OCc2c(-c3c(Cl)cccc3Cl)noc2C2CC2)cc1F` [Compound I-105, 4-[(1S,4S,5R)-5-{[5-cyclopropyl-3-(2,6-dichlorophenyl)-1,2-oxazol-4-yl]methoxy}-2-azabicyclo[2.2.1]heptan-2-yl]-2,5-difluorobenzoic Acid] were, in that order, 9.4, 142%, 112% and 1.26 nM.
On to `O=C(O)c1ccc(N2C[C@@H]3C[C@H]2C[C@H]3OCc2c(-c3c(Cl)cccc3Cl)noc2C2CC2)c(F)c1F` [Compound I-110, 4-((1S,4S,5R)-5-((5-cyclopropyl-3-(2,6-dichlorophenyl)isoxazol-4-yl)methoxy)-2-azabicyclo[2.2.1]heptan-2-yl)-2,3-difluorobenzoic acid], for which, in test [1], the pEC50 was determined as 10 and the Emax was 132%. In addition, in test [2], the Emax was 111% and the EC50 was 1 nM.
In the same order, the values of `Cc1cccc(Cl)c1-c1noc(C2CC2)c1CO[C@@H]1C[C@@H]2C[C@H]1CN2c1nc2c(O[C@@H]3CCOC3)cc(C(=O)O)cc2s1` [Compound I-275, 2-((1S,4S,5R)-5-((3-(2-chloro-6-methylphenyl)-5-cyclopropylisoxazol-4-yl)methoxy)-2-azabicyclo[2.2.1]heptan-2-yl)-4-(((R)-tetrahydrofuran-3-yl)oxy)benzo[d]thiazole-6-carboxylic acid] are 8.8, 140%, 106% and 0.631 nM.
The like results for `O=C(NS(=O)(=O)CC1CCOC1)c1ccc(N2C[C@@H]3C[C@H]2C[C@H]3OCc2c(-c3c(Cl)cccc3Cl)noc2C2CC2)cc1` (stereo partly drawn) [Compound I-186, 4-((1S,4S,5R)-5-((5-cyclopropyl-3-(2,6-dichlorophenyl)isoxazol-4-yl)methoxy)-2-azabicyclo[2.2.1]heptan-2-yl)-N-(((tetrahydrofuran-3-yl)methyl)sulfonyl)benzamide] were, in that order, 8.9, 134%, 107% and 0.158 nM.
As for `O=C(NS(=O)(=O)C1CCC1)c1ccc(N2C[C@@H]3C[C@H]2C[C@H]3OCc2c(-c3c(Cl)cccc3Cl)noc2C2CC2)cc1` [Compound I-183, N-(cyclobutylsulfonyl)-4-((1S,4S,5R)-5-((5-cyclopropyl-3-(2,6-dichlorophenyl)isoxazol-4-yl)methoxy)-2-azabicyclo[2.2.1]heptan-2-yl)benzamide], in test [1], the pEC50 is 8.6 and the Emax came out at 163%. Moreover, in test [2], the Emax came out at 119% and the EC50 was 0.1 nM.
For the molecule `Cc1cc(C(=O)O)cc2sc(N3C[C@@H]4C[C@H]3C[C@H]4OC(=O)c3c(-c4c(Cl)cccc4Cl)noc3C3CC3)nc12` [Compound I-3, 2-[(1S,4S,5R)-5-[5-cyclopropyl-3-(2,6-dichlorophenyl)-1,2-oxazole-4-carbonyloxy]-2-azabicyclo[2.2.1]heptan-2-yl]-4-methyl-1,3-benzothiazole-6-carboxylic acid], in test [1], the pEC50 is reported as 7.6 and the Emax is 153%. Further, in test [2], the Emax was determined as 123% and a half-maximal effect (EC50) was put at 5.01 nM.
The like results for `O=C(O)c1ccc(N2C(=O)[C@@H]3C[C@H]2C[C@H]3OCc2c(-c3c(Cl)cccc3Cl)noc2C2CC2)cc1F` [Compound I-314, 4-[(1S,4R,5R)-5-{[5-cyclopropyl-3-(2,6-dichlorophenyl)-1,2-oxazol-4-yl]methoxy}-3-oxo-2-azabicyclo[2.2.1]heptan-2-yl]-2-fluorobenzoic Acid] were, in that order, 8.4, 145%, 103% and 2.51 nM.
